Measurements from article PMC11069587, “An Elastin-like Polypeptide-fusion peptide targeting capsid-tegument interface as an antiviral against cytomegalovirus infection” (Scientific Reports, 2024).
Where no end group is shown, it is not given here.

What was measured:
Hepatitis B and D = tested on: Hepatitis B and D; parameters: method as in PMID 20007265; settings: cited from earlier work
uninfected MEFs = experiment: Cell viability of uninfected MEFs, trypan blue exclusion; settings: 80 μM, mock-infected, 3 days
Protocol: Cells were harvested at 3 dpi, and cell viability was assessed by trypan blue exclusion assay for both uninfected and infected groups. The standard error of the mean from three different experiments were plotted as error bars.
MEFs were plated in 24-well tissue-culture plates and grown to confluency in triplicates. […] At 3 dpi, the CMC (carboxymethylcellulose) + DMEM overlay was removed. The cells were then harvested by trypsinization to determine the cell viability using trypan blue exclusion with a TC20 automated cell counter (BioRad Laboratories, Hercules, CA, USA) following the manufacturer’s protocol. […] The cells were washed twice with PBS and overlayed with CMC + DMEM and incubated for 3 days. […] The percentage of cell survival was plotted for different treatment groups, and data were analyzed by one-way ANOVA using Tukey post hoc test.

HIV = tested on: HIV; parameters: method as in PMID 8312047; settings: cited from earlier work
[1] = Organ biodistribution by ex vivo whole-organ fluorescence imaging in mice; parameters: species or system mouse (Balb/c); settings: rhodamine-labeled, subcutaneous, 4 h post-injection, ex vivo IVIS imaging, female mice n = 4
Protocol: (§1) Plasma pharmacokinetics (a) were determined for 72 h after injection. In a separate cohort of mice (females, n = 4 per group), major organ biodistribution was determined 4 h after injection by ex vivo whole-organ fluorescence imaging (b and c). The standard deviations were plotted as error bars.
(§2) Blood samples were collected from the tail vein at different time points and centrifuged to collect plasma. […] For the biodistribution, a separate cohort of mice (female, n = 4 per group) were euthanized four hours after the injection with proteins or saline control, and the brain, spleen, liver, lungs, kidneys, and heart were harvested and assessed by ex-vivo whole organ imaging using the In Vivo Imaging System (IVIS, Perkin Elmer). […] To determine pharmacokinetic parameters, plasma concentrations during the clearance phase (from the peak of the plasma concentration curve) were fit using a two-compartment pharmacokinetic model as described previously using GraphPad Prism[32].

[2] = Plasma pharmacokinetics of rhodamine-labeled constructs in mice; format: in vivo, mouse (Balb/c)
Protocol: as §1, §2

Question: For Myrcludex B, which “concentrations at which efficacy was demonstrated” value (Hepatitis B and D) is on record?
Answer: Its value is “picomolar concentrations”.

Question: With `Nc1nc(O)c2ncn(COC(CO)CO)c2n1` [GCV, ganciclovir] as the molecule, how does the “cell viability of uninfected MEFs” value (uninfected MEFs) read?
Answer: The value was “not affected”.

Question: For Enfuvirtide, which IC50 (HIV) is on record?
Answer: The IC50 was “nanomolar range”.

Question: What does the source list for NKLVYTGRL [P10]?
Answer: accumulation in the kidneys [1]: much lower levels than ELP-P10; accumulation in the liver [1]: much lower levels than ELP-P10; Area Under Curve ([2]; 500 nmol/Kg subcutaneous, female mice n = 4 per group, plasma fluorescence over 72 h): 1185 ± 383 µM·h; time after which clearance from plasma began ([2]; subcutaneous, mouse plasma): 2 h
